In this experiment the target is T1, human TLR9 (Homo sapiens, UniProt Q9NR96).
T1 construct: host or cells: HEK-Blue cells (HEK293-derived reporter line)
T1 sequence (Q9NR96 26-1032): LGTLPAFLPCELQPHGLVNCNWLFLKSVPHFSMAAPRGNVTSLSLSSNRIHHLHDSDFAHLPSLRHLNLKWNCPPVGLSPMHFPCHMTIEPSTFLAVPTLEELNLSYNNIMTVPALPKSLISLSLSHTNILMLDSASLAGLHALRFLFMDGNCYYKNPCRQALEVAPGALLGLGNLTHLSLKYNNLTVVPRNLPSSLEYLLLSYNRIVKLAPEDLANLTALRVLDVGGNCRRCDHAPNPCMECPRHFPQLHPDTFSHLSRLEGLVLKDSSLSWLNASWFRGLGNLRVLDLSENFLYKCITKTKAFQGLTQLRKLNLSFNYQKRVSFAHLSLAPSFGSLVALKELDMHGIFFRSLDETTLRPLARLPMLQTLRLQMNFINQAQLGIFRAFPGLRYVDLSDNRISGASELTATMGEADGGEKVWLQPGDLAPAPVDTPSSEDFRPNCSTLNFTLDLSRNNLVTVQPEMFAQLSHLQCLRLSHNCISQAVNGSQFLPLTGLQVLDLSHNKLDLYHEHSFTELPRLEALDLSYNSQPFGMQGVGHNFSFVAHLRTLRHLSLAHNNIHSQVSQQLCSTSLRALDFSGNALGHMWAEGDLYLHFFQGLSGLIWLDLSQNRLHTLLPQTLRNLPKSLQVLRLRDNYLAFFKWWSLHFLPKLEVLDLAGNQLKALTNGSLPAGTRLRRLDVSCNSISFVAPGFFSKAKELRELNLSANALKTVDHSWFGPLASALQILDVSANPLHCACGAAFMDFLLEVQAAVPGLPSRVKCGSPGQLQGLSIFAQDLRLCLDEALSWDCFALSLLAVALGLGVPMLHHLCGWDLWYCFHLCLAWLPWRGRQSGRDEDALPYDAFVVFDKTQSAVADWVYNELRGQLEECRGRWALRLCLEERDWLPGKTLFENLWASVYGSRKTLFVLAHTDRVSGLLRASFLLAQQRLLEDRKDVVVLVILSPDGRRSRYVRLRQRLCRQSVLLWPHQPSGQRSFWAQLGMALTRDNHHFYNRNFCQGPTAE
Kind of experiment: TLR9 inhibition reporter assay (HEK-Blue cells, secreted embryonic alkaline phosphatase reporter). The format is cell-based. The procedure:
TLR7/8/9 Inhibition Reporter Assays
HEK-Blue™-cells (Invivogen) overexpressing human TLR7, TLR8 or TLR9 receptors were used for screening inhibitors of these receptors using an inducible SLAP (secreted embryonic alkaline phosphatase) reporter gene under the control of the […] minimal promoter fused to five NF-κB and AP-1-binding sites. Briefly, cells are seeded into Greiner 384 well plates (15000 cells per well for TLR7, 20,000 for TLR8 and 25,000 for TLR9) and then treated with test compounds in DMSO to yield a final dose response concentration range of 0.05 nM-50 μM. After a 30 minute compound pre-treatment at room temperature, the cells are then stimulated with a TLR7 ligand (gardiquimod at a final concentration of 7.5 μM), TLR8 ligand (R848 at a final concentration of 15.9 μM) or TLR9 ligand (ODN2006 at a final concentration of 5 nM) to activate NF-κB and AP-1 which induce the production of SLAP. After a 22 hour incubation at 37° C., […], SLAP levels are determined with the addition of HEK-Blue™ Detection reagent (Invivogen), a cell culture medium that allows for detection of SLAP, according to manufacturer's specifications. The percent inhibition is determined as the […] in the HEK-Blue signal present in wells treated with agonist plus DMSO alone compared to wells treated with a known inhibitor.
(In general: In a reporter assay the amount or activity of a reporter protein is the signal.)

[1] abbreviates: HEK-Blue cells overexpressing human TLR9, stimulated with ODN2006 5 nM, read-out: TLR 9 IC50.
[2] abbreviates: HEK-Blue human TLR9 reporter cells.

Experimental findings from US12492188B2, “1H-benzo[D]imidazole derivatives as TLR9 inhibitors for the treatment of fibrosis” (BRISTOL-MYERS SQUIBB COMPANY, priority 2020, dated 2025) are described below.

The IC50 is the point on the concentration scale where inhibition reaches its midpoint.

Like-named read-outs stand apart in the source and are kept apart here.

For `Cc1cc(C2CCN(C3CCCN(CC4CCC4)CC3)CC2)cc2c1nc(-c1ccc(S(C)(=O)=O)cc1)n2C` (stereo not shown) [Example 138, 6-(1-(1-(cyclobutylmethyl)azepan-4-yl)piperidin-4-yl)-1,4-dimethyl-2-(4-(methylsulfonyl)phenyl)-1H-benzo[d]imidazole], half-maximal inhibition (IC50) required 62 nM. Further, the IC50 under setting [1] is 62 nM.
For `Cc1cc(C2CCN(C3CC4(C3)CN(C(C)C)C4)CC2)cc2c1nc(-c1ccc(S(C)(=O)=O)cc1)n2C` [Example 139, 6-(1-(2-isopropyl-2-azaspiro[3.3]heptan-6-yl)piperidin-4-yl)-1,4-dimethyl-2-(4-(methylsulfonyl)phenyl)-1H-benzo[d]imidazole], the IC50 is 210 nM. For the same molecule, under setting [1], the IC50 is 211 nM.
In turn, `Cc1cc(C2CCN(C3CC4(C3)CN(C3CCC3)C4)CC2)cc2c1nc(-c1ccc(S(C)(=O)=O)cc1)n2C` [Example 140, 6-(1-(2-cyclobutyl-2-azaspiro[3.3]heptan-6-yl)piperidin-4-yl)-1,4-dimethyl-2-(4-(methylsulfonyl)phenyl)-1H-benzo[d]imidazole] registered an IC50 of 290 nM. Further, under setting [1], the IC50 was 290 nM.
Molecule `Cc1cc(C2CCN(C3CC4(C3)CN(CC(C)C)C4)CC2)cc2c1nc(-c1ccc(S(C)(=O)=O)cc1)n2C` [Example 141, 6-(1-(2-isobutyl-2-azaspiro[3.3]heptan-6-yl)piperidin-4-yl)-1,4-dimethyl-2-(4-(methylsulfonyl)phenyl)-1H-benzo[d]imidazole] had an IC50 of 250 nM. In addition, under setting [1], the half-maximal inhibitory concentration (IC50) was 248 nM.
`Cc1cc(C2CCN(C3CC4(C3)CN(CC3CC3)C4)CC2)cc2c1nc(-c1ccc(S(C)(=O)=O)cc1)n2C` [Example 142, 6-(1-(2-(cyclopropylmethyl)-2-azaspiro[3.3]heptan-6-yl)piperidin-4-yl)-1,4-dimethyl-2-(4-(methylsulfonyl)phenyl)-1H-benzo[d]imidazole] had an IC50 of 68 nM. Also, the IC50 under setting [1] was 68 nM.
The molecule `Cc1cc(C2CCN(C3CC4(C3)CN(CC3CCC3)C4)CC2)cc2c1nc(-c1ccc(S(C)(=O)=O)cc1)n2C` [Example 143, 6-(1-(2-(cyclobutylmethyl)-2-azaspiro[3.3]heptan-6-yl)piperidin-4-yl)-1,4-dimethyl-2-(4-(methylsulfonyl)phenyl)-1H-benzo[d]imidazole] had a half-maximal inhibitory concentration (IC50) of 85 nM. Also, the concentration for half-maximal inhibition (IC50) under setting [1] was 85 nM.
As for `COc1ccc(-c2nc3c(C)cc(C4CCN(C5CC6CCC(C5)N6C(C)C)CC4)cc3n2C)cc1OC` (stereo not shown) [Example 144, 2-(3,4-dimethoxyphenyl)-6-(1-(8-isopropyl-8-azabicyclo[3.2.1]octan-3-yl)piperidin-4-yl)-1,4-dimethyl-1H-benzo[d]imidazole], half-maximal inhibition (IC50) was put at 62 nM. In addition, under setting [1], the IC50 was 62 nM.
`COc1ccc(-c2nc3c(C)cc(C4CCN(C5CC6CCC(C5)N6C(C)C)CC4)cc3n2C)cc1OC` (stereo not shown) [Example 145, 2-(3,4-dimethoxyphenyl)-6-(1-(8-isopropyl-8-azabicyclo[3.2.1]octan-3-yl)piperidin-4-yl)-1,4-dimethyl-1H-benzo[d]imidazole] had an IC50 of 24 nM. The IC50 under setting [1] was 24 nM.
In turn, `COc1ccc(-c2nc3c(C)cc(C4CCN(C5CC6CCC(C5)N6C5CCC5)CC4)cc3n2C)cc1OC` (stereo not shown) [Example 146, 6-(1-(8-cyclobutyl-8-azabicyclo[3.2.1]octan-3-yl)piperidin-4-yl)-2-(3,4-dimethoxyphenyl)-1,4-dimethyl-1H-benzo[d]imidazole] displayed an IC50 of 70 nM. Further, the IC50 under setting [1] is 70 nM.
As to `COc1ccc(-c2nc3c(C)cc(C4CCN(C5CC6CCC(C5)N6C5CCC5)CC4)cc3n2C)cc1OC` (stereo not shown) [Example 147, 6-(1-(8-cyclobutyl-8-azabicyclo[3.2.1]octan-3-yl)piperidin-4-yl)-2-(3,4-dimethoxyphenyl)-1,4-dimethyl-1H-benzo[d]imidazole], the midpoint of inhibition, the IC50, lay at 200 nM. Also, the IC50 under setting [1] was determined as 199 nM.
Taken in the same sequence, the figures for `COc1ccc(-c2nc3c(C)cc(C4CCN(C5CC6CCC(C5)N6CC5CC5)CC4)cc3n2C)cc1OC` (stereo not shown) [Example 148, 6-(1-(8-(cyclopropylmethyl)-8-azabicyclo[3.2.1]octan-3-yl)piperidin-4-yl)-2-(3,4-dimethoxyphenyl)-1,4-dimethyl-1H-benzo[d]imidazole] were 34 nM and 34 nM.
Take `COc1ccc(-c2nc3c(C)cc(C4CCN(C5CC6CCC(C5)N6CC5CC5)CC4)cc3n2C)cc1OC` (stereo not shown) [Example 149, 6-(1-(8-(cyclopropylmethyl)-8-azabicyclo[3.2.1]octan-3-yl)piperidin-4-yl)-2-(3,4-dimethoxyphenyl)-1,4-dimethyl-1H-benzo[d]imidazole]: the IC50 was 47 nM. The IC50 under setting [1] was found to be 47 nM.
`Cc1cc(-c2ccc(N3CCN(CC(C)C)CC3)cc2)cc2c1nc(-c1ccc(S(C)(=O)=O)cc1)n2C` [Example 170, 6-(4-(4-isobutylpiperazin-1-yl)phenyl)-1,4-dimethyl-2-(4-(methylsulfonyl)phenyl)-1H-benzo[d]imidazole] yielded an IC50 of 4400 nM. Besides, under setting [1], the IC50 was determined as 4440 nM.
The molecule `Cc1cc(-c2ccc(N3CCN(CC4CC4)CC3)cc2)cc2c1nc(-c1ccc(S(C)(=O)=O)cc1)n2C` [Example 171, 6-(4-(4-(cyclopropylmethyl)piperazin-1-yl)phenyl)-1,4-dimethyl-2-(4-(methylsulfonyl)phenyl)-1H-benzo[d]imidazole] displayed an IC50 of 650 nM. In addition, the IC50 under setting [1] was 653 nM.
With `Cc1cc(-c2ccc(N3CCN(CC4CCC4)CC3)cc2)cc2c1nc(-c1ccc(S(C)(=O)=O)cc1)n2C` [Example 172, 6-(4-(4-(cyclobutylmethyl)piperazin-1-yl)phenyl)-1,4-dimethyl-2-(4-(methylsulfonyl)phenyl)-1H-benzo[d]imidazole], half-maximal inhibition (IC50) was put at 1800 nM. In addition, under setting [1], the IC50 came to 1780 nM.
The corresponding values for `COCCN1CCN(c2ccc(-c3cc(C)c4nc(-c5ccc(S(C)(=O)=O)cc5)n(C)c4c3)cc2)CC1` [Example 173, 6-(4-(4-(2-methoxyethyl)piperazin-1-yl)phenyl)-1,4-dimethyl-2-(4-(methylsulfonyl)phenyl)-1H-benzo[d]imidazole] are 1100 nM and 1110 nM.
`COc1ccc(-c2nc3ccc(C4CCN(C5CCN(C6CC6)CC5)CC4)c(F)c3[nH]2)cc1OC` [Example 175, 6-(1′-cyclopropyl-[1,4′-bipiperidin]-4-yl)-2-(3,4-dimethoxyphenyl)-7-fluoro-1H-benzo[d]imidazole]: it took 530 nM to reach half-maximal inhibition (IC50). Besides, under setting [1], the IC50 was found to be 527 nM.
As to `Cc1cc(-c2ccc(N3CCN(C4CCOCC4)CC3)cc2)cc2c1nc(-c1ccc(S(C)(=O)=O)cc1)n2C` [Example 176, 1,4-dimethyl-2-(4-(methylsulfonyl)phenyl)-6-(4-(4-(tetrahydro-2H-pyran-4-yl)piperazin-1-yl)phenyl)-1H-benzo[d]imidazole], the IC50 turned out to be 680 nM. Under setting [1], the IC50 amounted to 680 nM.
Take `CS(=O)(=O)c1ccc(-c2nc3c(F)cc(C4CCN(C5CCN(CC6CC6)CC5)CC4)cc3n2C2CC2)cc1` [Example 320, 1-cyclopropyl-6-(1′-(cyclopropylmethyl)-[1,4′-bipiperidin]-4-yl)-4-fluoro-2-(4-(methylsulfonyl)phenyl)-1H-benzo[d]imidazole]: the IC50 runs as follows: under setting [1], 77 nM; under setting [2], 77 nM.
Turning to `Cc1c(C2CCN(C3CCN(CC(C)C)CC3)CC2)ccc2nc(-c3ccc(S(C)(=O)=O)cc3)n(C)c12` [Example 330, 6-(1′-isobutyl-[1,4′-bipiperidin]-4-yl)-1,7-dimethyl-2-(4-(methylsulfonyl)phenyl)-1H-benzo[d]imidazole], the IC50 was 1390 nM under setting [1] and 1400 nM under setting [2].
